{
  "source": "paper PMC11111408",
  "about": "“Concurrent inhibition of oncogenic and wild-type RAS-GTP for cancer therapy” (Nature, 2024)",
  "key": {"A375 cells [1]": {"tested_on": "A375 cells", "test": "Cellular ERK phosphorylation (pERK)", "type": "cell-based, human", "details": "Homo sapiens, A-375; A375 (BRAF^V600E)"}, "KRAS^G12V [2]": {"target": "T1, KRAS^G12V (Homo sapiens, UniProt P01116+P62937, G12V)", "test": "Biochemical RAS–RAF (BRAF RBD) disruption, TR-FRET", "design": "His6-TEV (N); made in house; host or cells: BL21(DE3) Escherichia coli", "from_the_text": "Time-resolved fluorescence resonance energy transfer (TR-FRET) was used as previously described to assess disruption of the interactions between wild-type RAS or the mutant oncogenic RAS proteins and the RAS-binding domain of BRAF, and to assess the induction of interactions between the RAS proteins and CYPA[12]."}, "CYPA": {"target": "T2, CYPA (Homo sapiens, UniProt P62937)", "T2 construct": "His6-TEV-AviTag-CYPA (full-length); His6-TEV (N); made in house; host or cells: BL21(DE3) Escherichia coli", "test": "CYPA binding affinity (Kd1), SPR", "details": "steady state, (95% CI)", "procedure": "The binding affinity of compounds for CYPA (Kd1) was assessed by SPR on a Biacore 8K instrument as previously described."}, "A375 cells [3]": {"tested_on": "A375 cells", "test": "Cell proliferation (CTG)", "type": "cell-based, human", "details": "Homo sapiens, A-375; A375, CTG; (95% CI)", "procedure": "(§1) Alternatively, cells were seeded in round-bottom ultra-low attachment 96-well plates, centrifuged at 1,000 rpm for 10 min to pellet the cells, and incubated overnight or up to 72 h to allow for 3D spheroid formation. […] Cell viability was determined by CellTiter-Glo 2.0 reagent (2D CTG) (Promega, G9243) or 3D CellTiter-Glo reagent (3D CTG) (Promega, G9683) according to the manufacturer’s protocols. Luminescence was detected using a SpectraMax M5 Plate Reader (Molecular Devices) of Perkin Elmer Enspire. Luminescence signal was normalized to vehicle-treated wells (normalized signal (%) = (luminescence (treated)/mean luminescence (vehicle)) × 100%). […] Data were plotted as log [inhibitor (M)], and a four-parameter sigmoidal concentration response model was fitted to the data to calculate EC50. […] Pa16C MEK1 mutant cells were evaluated by live-cell counting using Calcein AM and a SpectraMax i3X multi-mode detection platform (Molecular Devices). Growth percentages were calculated by normalizing the treated cell counts to their respective untreated cell counts."}, "Capan-1 cells [4]": {"tested_on": "Capan-1 cells", "test": "Cellular ERK phosphorylation (pERK)", "type": "cell-based", "details": "Homo sapiens; Capan-1 (KRAS^G12V PDAC); (95% CI)"}, "[5]": {"test": "Oral bioavailability in mice (LC-MS/MS of blood)", "type": "in vivo", "details": "mouse, whole blood, read-out: Oral Bioavailability m%F"}, "KRAS^G12V [6]": {"target": "T1, KRAS^G12V", "test": "RAS binding affinity of compound-bound CYPA (Kd2), SPR", "design": "His6-TEV (N); made in house; host or cells: BL21(DE3) Escherichia coli", "details": "steady state, (95% CI)"}, "Capan-1 cells [7]": {"tested_on": "Capan-1 cells", "test": "Cell proliferation (CTG)", "type": "cell-based", "details": "Homo sapiens; Capan-1, CTG; (95% CI)", "procedure": "as §1"}, "[8]": {"tested_on": "KRAS^G12D PDAC cell lines", "test": "Western blot time course of RAS signalling in KRAS^G12D PDAC cell lines", "type": "cell-based, human", "details": "KRAS^G12D PDAC cells in culture, 2 h to 48 h", "procedure": "Total ERK and vinculin were used as loading controls. […] Source Data\nCells were lysed with MSD Tris Lysis Buffer (MSD, R60TX-2) or a buffer of 1% Triton X-100, 20 mM Tris-HCl, 150 mM NaCl, and 1 mM EDTA, both supplemented with protease and phosphatase inhibitors. Lysates were cleared by centrifugation and quantified by BCA assay (Pierce, 23225). […] Image Studio Lite (Version 5.2.5) and Image Lab (Version 6.1.0 build 7) software were used for data analysis."}, "[9]": {"tested_on": "Pa16C cells expressing MEK1 mutants", "test": "Proliferation (Calcein AM) of Pa16C cells expressing MEK1 mutants", "type": "cell-based, human"}},
  "note": "“And” between values parts separate entries of the source, which are not always exact repeats. Equal values may be shown once.",
  "data": [
    {"smiles": "CCn1c(-c2cccnc2[C@H](C)OC)c2c3cc(ccc31)-c1cccc(c1)C[C@H](NC(=O)[C@H](C(C)C)N(C)C(=O)[C@H]1CCN(C(C)=O)C1)C(=O)N1CCC[C@H](N1)C(=O)OCC(C)(C)C2", "note": "[Compound 1]", "values": [
      {"measurement": "EC50", "setting": "A375 cells [1]", "result": "> 10", "unit": "µM"},
      {"measurement": "EC50", "setting": "KRAS^G12V [2]", "result": 4.4, "unit": "µM"},
      {"measurement": "Kd", "setting": "CYPA", "result": 0.862, "unit": "µM"},
      {"measurement": "EC50", "setting": "A375 cells [3]", "result": 6.41, "unit": "µM"},
      {"measurement": "EC50", "setting": "Capan-1 cells [4]", "result": 0.632, "unit": "µM"},
      {"measurement": "bioavailability", "setting": "[5]", "result": 5, "unit": "%"},
      {"measurement": "Kd", "setting": "KRAS^G12V [6]", "result": 6.55, "unit": "µM"},
      {"measurement": "EC50", "setting": "Capan-1 cells [7]", "result": 0.965, "unit": "µM"}
    ]},
    {"smiles": "C#Cc1c(F)ccc2cc(O)cc(-c3ncc4c(N5CC6CCC(C5)N6)nc(OC[C@@]56CCCN5C[C@H](F)C6)nc4c3F)c12", "note": "[MRTX1133, reference compound]", "values": [
      {"measurement": "pERK suppression over time", "setting": "[8]", "result": "rebounded by 48 h"},
      {"measurement": "Proliferation of Pa16C cells expressing MEK1 mutant constructs", "setting": "[9]; MEK1E102-I103del, inhibitor 0.046 nM", "result": "125.8 and 122.1 and 120.54 and 95.05"},
      {"measurement": "Proliferation of Pa16C cells expressing MEK1 mutant constructs", "setting": "[9]; MEK1E102-I103del, inhibitor 0.412 nM", "result": "113.2 and 113.4 and 113.54 and 82.15"},
      {"measurement": "Proliferation of Pa16C cells expressing MEK1 mutant constructs", "setting": "[9]; MEK1E102-I103del, inhibitor 1.235 nM", "result": "110 and 114.8 and 110.17 and 83.99"},
      {"measurement": "Proliferation of Pa16C cells expressing MEK1 mutant constructs", "setting": "[9]; MEK1E102-I103del, inhibitor 3.704 nM", "result": "89.5 and 104.7 and 87.18 and 77.13"},
      {"measurement": "Proliferation of Pa16C cells expressing MEK1 mutant constructs", "setting": "[9]; MEK1K57N, inhibitor 0.046 nM", "result": "113.3 and 92 and 123.41 and 119.36"},
      {"measurement": "Proliferation of Pa16C cells expressing MEK1 mutant constructs", "setting": "[9]; MEK1K57N, inhibitor 0.412 nM", "result": "108.9 and 110.1 and 130.35 and 129.87"},
      {"measurement": "Proliferation of Pa16C cells expressing MEK1 mutant constructs", "setting": "[9]; MEK1K57N, inhibitor 1.235 nM", "result": "119.4 and 130.2 and 127.87 and 133.27"},
      {"measurement": "Proliferation of Pa16C cells expressing MEK1 mutant constructs", "setting": "[9]; MEK1K57N, inhibitor 3.704 nM", "result": "112.2 and 126.4 and 116.3 and 122.06"},
      {"measurement": "Proliferation of Pa16C cells expressing MEK1 mutant constructs", "setting": "[9]; MEK1Q56P, inhibitor 0.046 nM", "result": "116.6 and 110 and 105 and 106.72"},
      {"measurement": "Proliferation of Pa16C cells expressing MEK1 mutant constructs", "setting": "[9]; MEK1Q56P, inhibitor 0.412 nM", "result": "113.89 and 123.5 and 112.2 and 128.92"},
      {"measurement": "Proliferation of Pa16C cells expressing MEK1 mutant constructs", "setting": "[9]; MEK1Q56P, inhibitor 1.235 nM", "result": "123.05 and 112.4 and 128.9 and 131.08"},
      {"measurement": "Proliferation of Pa16C cells expressing MEK1 mutant constructs", "setting": "[9]; MEK1Q56P, inhibitor 3.704 nM", "result": 108.45},
      {"measurement": "Proliferation of Pa16C cells expressing MEK1 mutant constructs", "setting": "[9]; MEK1S218D/S222D, inhibitor 0.046 nM", "result": "106.52 and 116.35 and 117.97 and 101.1"},
      {"measurement": "Proliferation of Pa16C cells expressing MEK1 mutant constructs", "setting": "[9]; MEK1S218D/S222D, inhibitor 0.412 nM", "result": "107.39 and 112.33 and 125.31 and 99.77"},
      {"measurement": "Proliferation of Pa16C cells expressing MEK1 mutant constructs", "setting": "[9]; MEK1S218D/S222D, inhibitor 1.235 nM", "result": "101.82 and 118.84 and 117.94 and 98.18"},
      {"measurement": "Proliferation of Pa16C cells expressing MEK1 mutant constructs", "setting": "[9]; MEK1S218D/S222D, inhibitor 3.704 nM", "result": "93.55 and 118.16 and 86.21 and 93.79"},
      {"measurement": "Proliferation of Pa16C cells expressing MEK1 mutant constructs", "setting": "[9]; MEK1WT, inhibitor 0.046 nM", "result": "112.3 and 102.3 and 116.1 and 105.31 and 102.33"},
      {"measurement": "Proliferation of Pa16C cells expressing MEK1 mutant constructs", "setting": "[9]; MEK1WT, inhibitor 0.412 nM", "result": "119.4 and 93.5 and 109.72 and 103.89 and 97.19"},
      {"measurement": "Proliferation of Pa16C cells expressing MEK1 mutant constructs", "setting": "[9]; MEK1WT, inhibitor 1.235 nM", "result": "110 and 85.2 and 91.69 and 105.96 and 84.4"},
      {"measurement": "Proliferation of Pa16C cells expressing MEK1 mutant constructs", "setting": "[9]; MEK1WT, inhibitor 3.704 nM", "result": "88.3 and 70.7 and 61.19"}
    ]}
  ]
}
